Test results published in patent publication US4822805A, “Pyridyl-imidazole compounds which have useful pharmaceutical activity” (Fujisawa Pharmaceutical Co., Ltd., priority 1986, dated 1989).
In brackets after ≈: the same amount, converted by molar mass.

How the values were obtained:
[1] = system: left ventricular pressure (dp/dt max); assay: Cardiotonic activity, Test 1: dp/dt max change in anesthetized dogs; assay type: in vivo, Mongrel dogs; details: 1.0 mg/kg, injected into the femoral vein
Procedure: Mongrel dogs of either sex were anesthetized with sodium pentobarbital, 35 mg/kg, i.p.. The animals were allowed to breathe spontaneously. The left carotid artery was isolated and a catheter (USCI, #8F) filled with heparinized saline was inserted and advanced into the left ventricle. The catheter was connected to a pressure transducer (Nihonkohden, MPU-0.5A) to measure the left ventricular pressure, from which dp/dt max was derived by analog computing. The measure the systemic blood pressure the left femoral artery was cannulated. The blood pressure pulse was used to trigger a heart rate meter. Another catheter was positioned in the vena cave through right femoral vein for injection of drugs. Systemic blood pressure, left ventricular pressure, dp/dt max and heart rate was recorded simultaneously on a polygram (Nihonkohden, RJG-4008).
Test compound was dissolved in distilled water (0.2 ml/kg) or dimethyl sulfoxide (0.04 ml/kg) and injected into the femoral vein. The parameters after dosing were compared with those during the predosing period.
Test results were represented in terms of percentage of dp/dt max changes (dp/dt M.C.) calculated by following formula. [formula]

atrial strip = assay: Cardiotonic activity, Test 2: contractile force and heart rate of isolated atrial strip; set-up: species or system Male Hartley strain guinea-pigs; details: Cavia porcellus, 0.5 h; 1 × 10^-5 g/ml; 30° C.; observed for 30 min; percentage before and after dosing
Procedure: Male Hartley strain guinea-pigs, weighing 530-600 g, were killed by bleeding and the heart was removed. An atrial strip was removed and suspended in an organ bath containing 50 ml of Tyrode's solution maintained at 30° C. and aerated with a gas mixture of 95% O2 -5% CO2. The atrium was connected to a strain gauge under an initial tension of 0.4-0.6 g. […] The effect was expressed as percentage values before and after dosing.

[2] = system: Platelet aggregation (collagen); assay: Anti-platelet activity, Test 3: collagen-induced platelet aggregation in blood after oral administration; assay type: in vivo, Male Sprague-Dawley rats; details: 32 mg/kg oral, blood collected one hour after; collagen 5.0 μg/ml
Procedure: Male Sprague-Dawley rats weighing about 250 g were used after overnight fasting. One hour after oral administration of test compound or vehicle of test compound (control), blood was collected into a tube containing 0.1 vol. of 3.8% sodium citrate. To the 0.45 ml of blood, 0.05 ml of collagen (final concentration 5.0 μg/ml) was added and then incubated for 5 min. at 37° C. under shaking. The reaction was terminated by addition of 1 ml of 10 mM phosphate buffered saline (pH 7.4) containing 11.5 mM EDTA and 1% formalin. The reaction mixture was centrifuged at 70 xg for 5 min. and platelet count of upper phase was measured by Technicon Auto Analizer.
Platelet aggregation was calculated according to the following formula: [formula] A: Platelet count after addition of vehicle of collagen B: Platelet count after addition of collagen.
Inhibition of the test compound was calculated according to the following formula. [formula] C: Platelet aggregation (%) of control D: Platelet aggregation (%) of Test compound.

carrageenin foot edema = assay: Anti-inflammatory activity, Test 5: carrageenin foot edema; assay type: in vivo, Male Sprague-Dawley rats; details: 32 mg/kg oral, 60 minutes before phlogogen; edema volume 3 hours after phlogogen; 1% carrageenin
Procedure: Male Sprague-Dawley rats weighing about 180 g were used in groups of five. Paw edema was induced by subplantar injection of 1% carrageenin (0.1 ml/rat) into the right hind paw in carrageenin foot edema. The test compound was suspended in methylcellulose and administered orally 60 minutes before halogogen. Paw volume was measured with plethysmometer (Ugo Basil Co., Ltd.) by water displacement immersing the paw to the lateral malleolus. The difference of paw volume before and 3 hours after the phlogogen was designated as edema volume.
The data was analyzed statistically by student's t-test.

[3] = system: Platelet aggregation (9,11-azo PGH2); assay: Anti-platelet activity, Test 4: 9,11-azo PGH2-induced platelet aggregation in platelet rich plasma; assay type: cell-based, rabbits; details: Oryctolagus cuniculus, rabbit PRP, 9,11-azo PGH2 1.0 μM, 37° C.
Procedure: The blood was collected from the carotid artery of rabbits into plastic vessels containing 0.1 volume of 3.8% sodium citrate. Platelet rich plasma (PRP) was prepared by centrifugation at 150 g for 15 minutes. Platelet aggregation was investigated by using the turbidimetric method with an aggregometer (NKK HEMATRACER 1). To the 225 μl of PRP, 25 μl of test compound solution was added, and then stirred at 1000 rpm for 2 minutes at 37° C. To the solution 5 μl of 9,11-azo PGH2 (final 1.0 μM) was added as an aggregating inducer.

SMILES: COc1ccc(-c2nc(-c3cccnc3)c(C)[nH]2)c(OC)c1 [Compound a, 2-(2,4-Dimethoxyphenyl)-5-methyl-4-(3-pyridyl)imidazole]
- dp/dt M.C. (percentage of dp/dt max changes) [1]: 82%
- activation at 10 µg/mL (atrial strip): 45%
- inhibition at 10 µg/mL (atrial strip): 21.2%

SMILES: CCc1nc(-c2ccc(OC)cc2OC)[nH]c1-c1cccnc1 [Compound b, 2-(2,4-Dimethoxyphenyl)-4-ethyl-5-(3-pyridyl)imidazole]
- dp/dt M.C. (percentage of dp/dt max changes) [1]: 133%

SMILES: COc1cc(SC)ccc1-c1nc(-c2cccnc2)c(C)[nH]1 [Compound c, 2-(2-Methoxy-4-methylthiophenyl)-5-methyl-4-(3-pyridyl)imidazole]
- dp/dt M.C. (percentage of dp/dt max changes) [1]: 167%

SMILES: CCc1[nH]c(-c2ccc(OC)c(OC)c2)nc1-c1ccccn1 [Compound d, 2-(3,4-Dimethoxyphenyl)-5-ethyl-4-(2-pyridyl)imidazole]
- activation at 10 µg/mL (atrial strip): 51.6%
- inhibition at 10 µg/mL (atrial strip): 14.1%

SMILES: COc1ccc(-c2nc(-c3ccncc3)c(C)[nH]2)c(OC)c1 [Compound e, 2-(2,4-Dimethoxyphenyl)-5-methyl-4-(4-pyridyl)imidazole]
- activation at 10 µg/mL (atrial strip): 58%
- inhibition at 10 µg/mL (atrial strip): 26.8%

SMILES: CCc1[nH]c(-c2ccc(OC)cc2OC)nc1-c1ccncc1 [Compound f, 2-(2,4-Dimethoxyphenyl)-5-ethyl-4-(4-pyridyl)imidazole]
- activation at 10 µg/mL (atrial strip): 61.1%
- inhibition at 10 µg/mL (atrial strip): 30.7%

SMILES: COc1cc(NC(C)=O)c(Cl)cc1-c1nc(-c2cccnc2)c(C)[nH]1 [Compound g, 2-(4-Acetamido-5-chloro-2-methoxyphenyl)-5-methyl-4-(3-pyridyl)imidazole]
- Inhibition (platelet aggregation) [2]: 87.6%

SMILES: COc1ccccc1-c1nc(-c2cccnc2)c(C)[nH]1 [Compound h, 2-(2-Methoxyphenyl)-5-methyl-4-(3-pyridyl)imidazole]
- Inhibition (paw edema) (carrageenin foot edema): 62.7%

SMILES: Cc1nc(-c2ccccc2F)[nH]c1-c1cccnc1 [Compound i, 2-(2-Fluorophenyl)-4-methyl-5-(3-pyridyl)imidazole]
- IC50 [3]: 0.11 µg/mL (≈ 0.434 µM)
- Inhibition (platelet aggregation) [2]: 100%

SMILES: CC(=O)Nc1ccccc1-c1nc(C)c(-c2cccnc2)[nH]1 [Compound j, 2-(2-Acetamidophenyl)-4-methyl-5-(3-pyridyl)imidazole]
- IC50 [3]: 0.39 µg/mL (≈ 1.33 µM)
- Inhibition (platelet aggregation) [2]: 91.3%

SMILES: COc1cc(Cl)ccc1-c1nc(-c2cccnc2)c(C)[nH]1 [Compound k, 2-(4-Chloro-2-methoxyphenyl)-5-methyl-4-(3-pyridyl)imidazole]
- IC50 [3]: 0.16 µg/mL (≈ 0.534 µM)
- Inhibition (paw edema) (carrageenin foot edema): 72.3%
